Data as given in ChEMBL document CHEMBL5506011, “Discovery of novel and selective farnesoid X receptor antagonists through structure-based virtual screening, preliminary structure-activity relationship study, and biological evaluation” (Eur J Med Chem, 2024).

Legend:
Format in all cases: organism-based
[1] = Toxicity in male C57BL/6 mouse assessed as aspartate transaminase (AST) level in serum at 20 mg/kg, ip measured after 4 days; settings: in vivo, 96 h, time 4 day
[2] = Toxicity in male C57BL/6 mouse assessed as total bile acid level in serum at 20 mg/kg, ip measured after 4 days; settings: in vivo, 96 h, time 4 day
[3] = Toxicity in male C57BL/6 mouse assessed as alanine transaminase (ALT) level in serum at 20 mg/kg, ip measured after 4 days; settings: in vivo, 96 h, time 4 day
[4] = Toxicity in male C57BL/6 mouse assessed as aspartate transaminase (AST) level in serum at 20 to 40 mg/kg, po measured after 4 days; settings: in vivo, 96 h, dose 20-40 mg/kg, time 4 day
[5] = Toxicity in male C57BL/6 mouse assessed as total bile acid level in serum at 20 to 40 mg/kg, po measured after 4 days; settings: in vivo, 96 h, dose 20-40 mg/kg, time 4 day

Measured: Activity

Cc1ccc(C)c(OCCCC(C)(C)C(=O)NCC(=O)c2ccc(O)cc2)c1
Non-Toxic: [1] | [2] | [3] | [4] | [5]
